US10023565B2, “N,N′ substituted piperidinamine compounds, and preparation method and usage thereof” (Institute of Pharmacology and Toxicology Academy of …, priority 2013, dated 2018)
“And” between values parts separate entries of the source, which are not always exact repeats. Identical values can stand only once. Like-named read-outs stand apart in the source and are kept apart here.

Experiment: Mice pharmacokinetic evaluation (LC-MS/MS of plasma)
Assay type: in vivo, ICR mice
Details: for in vivo absorption and elimination: intragastric administration to mice
Protocol: Mice pharmacokinetic evaluation of the compound of Example 36 according to the method described below
ICR mice, SPS grade, male, weighed […], license number SCXK (Beijing) 2012-0001, purchased from Beijing Vital River Laboratory Animal Technology Co. Ltd.
Chromatographic conditions: Analytical column: Capcell Pak MG, 5 μm particle size, 50×2.0 mm I.D. (Shiseido Co.), connected with C18 guard column, 4×3.0 mm I.D. (PhenomenexCo., USA), column temperature 25° C., mobile phase: acetonitrile −2 mM ammonium acetate (65:35, v/v), flow rate 0.3 ml/min, internal standard: loratadine.
MS conditions: Electrospray ionization source (Turbo Ionspray source), positive ion mode detection; spray voltage 4500 V; source temperature 400° C.; nebulizer gas (NEB) 8; curtain gas (CUR) 10; collision gas (CAD) 4; scanning mode: multiple reaction monitoring (MRM), ion reactions for quantitative analysis: m/z 354.4→m/z 154.1 (Mol, CE 43 V) and m/z 383→m/z 337 (internal standard loratadine, CE 32 V), scanning time 150 msec.
To 50 μl of plasma, were added 10 μl of internal standard solution (125 ng/ml aqueous solution of loratadine), and 500 μl of n-hexane-dichloromethane-isopropanol (100:50:5, v/v/v); they were uniformly mixed, followed by vortexing for 3 min, and centrifuging for 10 min (3000 rpm); the supernatant was taken and blow dried with air streamat 40° C.; the residue was dissolved with 150 μl […], and subjected to LC-MS/MS analysis.
30 ICR male mice were randomly divided into […], five mices each group, including Mol 10 mg/kg oral group and 1.0 mg/kg tail intravenous injection group. For oral group, before administration, the animals were fasted for 12 h, with free access to water; 0.08, 0.25, 0.5, 1, 2, 4, 6, 8, 12 and 24 h after intragastrical administration, 0.1 ml of orbital venous sinus blood was taken, placed in anticoagulation tube containing heparin sodium, and subjected to 3000 g centrifugation for 15 min; and then, the plasma was taken and stored in a −20° C. refrigerator. […]
Pharmacokinetic parameters were calculated using non-compartment model of Winnonlin® software (Version 5.2.1, USA). Cmax is the measured maximum plasma concentration, Tmax is time to peak plasma concentration after oral administration, t1/2 is drug terminal elimination halflife, MRT is average residence time of drug in vivo, the area AUC0-t under plasma concentration—time curve is calculated by trapezoidal method.
Bioavailability is calculated as follows: […]
AUC: Area (h*ng/ml) under the curve; D: dose (mg/kg)

[1] = IV 1.0 mg/kg, individual mice 4-6, listed as Mol, 1 mg/kg
[2] = Po 10 mg/kg, individual mice 1-3, listed as Mol, 10 mg/kg
[3] = male, ICR, mouse, plasma, iv, 1 mg/kg, IV 1.0 mg/kg, Mean ± SD, n = 3
[4] = male, ICR, mouse, plasma, iv, 1 mg/kg, IV 1.0 mg/kg, individual mice 4-6

Question: With `CSc1nccc(N2CCC(N(C)Cc3ccc(C#N)cc3)CC2)n1` [Example 36, N-methyl-N-(4-cyanobenzyl)-N-[1-(2-methylthiopyrimidin-4-yl)piperidin-4-yl]amine] as the compound, how does the Ke (IV 1.0 mg/kg, Mean ± SD, n = 3) read?
Answer: The Ke was 0.97 ± 0.88 h⁻¹.

Question: What about the “AUC0-∞” value [1] of the same compound?
Answer: The value was 37.81 ng·h/mL and 58.27 ng·h/mL.

Question: What about the Cmax [1] of the same compound?
Answer: Its Cmax is 63.90 ng/mL and 71.35 ng/mL.

Question: And the Ke [1]?
Answer: Its Ke is 1.98 h⁻¹ and 0.51 h⁻¹ and 0.43 h⁻¹.

Question: And the MRT0-t [1]?
Answer: The MRT0-t was 0.42 h and 1.02 h and 2.40 h.

Question: And the “MRT0-∞” value [1]?
Answer: Its value is 0.46 h and 1.35 h and 2.71 h.

Question: And the Tmax [1]?
Answer: The Tmax was 0.03 h (2×) and 0.08 h.

Question: And the t1/2 [1]?
Answer: The t1/2 was 0.35 h and 1.37 h and 1.62 h.

Question: What about the “F (bioavailability)” value (Po 10 mg/kg vs IV 1.0 mg/kg, individual mice 1-3, listed as Mol) of the same compound?
Answer: Its value is 43.20% and 63.94% and 59.39%.

Question: And the Ke (Po 10 mg/kg, Mean ± SD, n = 3)?
Answer: The Ke was 0.43 ± 0.33 h⁻¹.

Question: And the Cmax (Po 10 mg/kg, Mean ± SD, n = 3, listed as Mol, 10 mg/kg)?
Answer: Its Cmax is 260.2 ± 63.19 ng/mL.

Question: And the “AUC0-∞” value [2]?
Answer: Its value is 317.86 ng·h/mL and 305.15 ng·h/mL.

Question: And the Cmax [2]?
Answer: The Cmax was 260.48 ng/mL and 323.37 ng/mL.

Question: What about the Ke [2] of the same compound?
Answer: Its Ke is 0.40 h⁻¹ and 0.77 h⁻¹ and 0.13 h⁻¹.

Question: What about the MRT0-t [2] of the same compound?
Answer: The MRT0-t was 1.26 h and 0.93 h and 2.56 h.

Question: And the “MRT0-∞” value [2]?
Answer: Its value is 1.34 h and 0.95 h and 3.57 h.

Question: And the Tmax [2]?
Answer: The Tmax was 0.08 h and 1.00 h and 0.25 h.

Question: What about the t1/2 [2] of the same compound?
Answer: The t1/2 was 1.74 h and 0.90 h and 5.53 h.

Question: What about the “in vivo absorption and elimination” value (10 mg/kg) of the same compound?
Answer: Its value is “in vivo absorption and elimination of the compound both are faster”.

Question: And the “in vivo absorption and elimination” value (10 mg/kg, listed as Mol)?
Answer: Its value is “the vivo absorption and elimination after intragastrical administration to mice both were quite fast”.

Question: And the “Plasma concentration of active compound” value (intravenous 1.0 mg/kg, 0.03 h, individual mice 4-6, listed as Mol, 1 mg/kg)?
Answer: The value was 99.34 ng/mL and 9.23 ng/mL and 71.35 ng/mL.

Question: And the “Plasma concentration of active compound” value (intravenous 1.0 mg/kg, 0.08 h, individual mice 4-6, listed as Mol, 1 mg/kg)?
Answer: Its value is 63.90 ng/mL and 63.03 ng/mL.

Question: What about the “Plasma concentration of active compound” value (intravenous 1.0 mg/kg, 0.17 h, individual mice 4-6, listed as Mol, 1 mg/kg) of the same compound?
Answer: Its value is 56.30 ng/mL and 52.58 ng/mL.

Question: And the “Plasma concentration of active compound” value (intravenous 1.0 mg/kg, 0.5 h, individual mice 4-6, listed as Mol, 1 mg/kg)?
Answer: Its value is 48.72 ng/mL and 24.29 ng/mL and 21.45 ng/mL.

Question: What about the “Plasma concentration of active compound” value (intravenous 1.0 mg/kg, 1.0 h, individual mice 4-6, listed as Mol, 1 mg/kg) of the same compound?
Answer: Its value is 10.10 ng/mL and 3.94 ng/mL and 7.02 ng/mL.

Question: What about the “Plasma concentration of active compound” value (intravenous 1.0 mg/kg, 2.0 h, individual mice 4-6, listed as Mol, 1 mg/kg) of the same compound?
Answer: Its value is 2.35 ng/mL and 0.95 ng/mL and 1.99 ng/mL.

Question: And the “Plasma concentration of active compound” value (intravenous 1.0 mg/kg, 4.0 h, individual mice 4-6, listed as Mol, 1 mg/kg)?
Answer: The value was 2.23 ng/mL.

Question: And the “Plasma concentration of active compound” value (intravenous 1.0 mg/kg, 8.0 h, individual mice 4-6, listed as Mol, 1 mg/kg)?
Answer: Its value is 0.98 ng/mL.

Question: What about the AUC(0-inf) [3] of the same compound?
Answer: Its AUC(0-inf) is 51.2 ± 11.6 ng·h/mL.

Question: And the AUC(0-t) [3]?
Answer: The AUC(0-t) was 49.6 ± 11.4 ng·h/mL.

Question: What about the half-life [3] of the same compound?
Answer: The half-life was 1.11 ± 0.67 h.

Question: And the Cmax (male, ICR, mouse, plasma, iv, 1 mg/kg, IV 1.0 mg/kg, Mean ± SD, n = 3, read-out: Cmax)?
Answer: The Cmax was 78.1 ± 18.7 ng/mL.

Question: What about the MRT last (male, ICR, mouse, plasma, iv, 1 mg/kg, IV 1.0 mg/kg, Mean ± SD, n = 3, read-out: MRT0-t) of the same compound?
Answer: Its MRT last is 1.28 ± 1.01 h.

Question: And the MRT inf (male, ICR, mouse, plasma, iv, 1 mg/kg, IV 1.0 mg/kg, Mean ± SD, n = 3, read-out: MRT0-∞)?
Answer: The MRT inf was 1.51 ± 1.13 h.

Question: And the Tmax (male, ICR, mouse, plasma, iv, 1 mg/kg, IV 1.0 mg/kg, Mean ± SD, n = 3, read-out: Tmax)?
Answer: The Tmax was 0.05 ± 0.03 h.

Question: And the AUC(0-inf) [4]?
Answer: The AUC(0-inf) was 57.6 ng·h/mL.

Question: And the AUC(0-t) [4]?
Answer: Its AUC(0-t) is 56.4 ng·h/mL.

Question: What about the Cmax (male, ICR, mouse, plasma, iv, 1 mg/kg, IV 1.0 mg/kg, individual mice 4-6, read-out: Cmax) of the same compound?
Answer: Its Cmax is 99.3 ng/mL.

Question: And the concentration at 0.03 h (male, ICR, mouse, plasma, iv, 1 mg/kg, intravenous 1.0 mg/kg, 0.03 h, Mean, read-out: Plasma concentration of active compound)?
Answer: Its concentration at 0.03 h is 60 ng/mL.

Question: And the concentration at 0.08 h (male, ICR, mouse, plasma, iv, 1 mg/kg, intravenous 1.0 mg/kg, 0.08 h, Mean, read-out: Plasma concentration of active compound)?
Answer: The concentration at 0.08 h was 74.5 ng/mL.

Question: And the concentration at 0.08 h (male, ICR, mouse, plasma, iv, 1 mg/kg, intravenous 1.0 mg/kg, 0.08 h, individual mice 4-6, read-out: Plasma concentration of active compound)?
Answer: The concentration at 0.08 h was 96.6 ng/mL.
